Data: ChEMBL document CHEMBL5370664, “Resveratrol Derivatives Inhibit Transthyretin Fibrillization: Structural Insights into the Interactions between Resveratrol Derivatives and Transthyretin” (J Med Chem, 2023)
Activity calls are given as the source filed them. The rule behind the calls is not given here.

Key:
Transthyretin [1] = target: T1, Transthyretin (Homo sapiens, UniProt P02766, V50M); assay: (§1) Inhibition of recombinant N-terminal hexa-histidine tagged TTR V30M mutant (unknown origin) expressed in Escherichia coli assessed as acid mediated amyloid-like fibril formation by measuring turbidity incubated for 1 week at 310K in presence of sodium acetate by absorbance based assay
[2] = system: Transthyretin (Homo sapiens), P02766 [V50M]; assay: Binding affinity to N-terminal hexa-histidine tagged TTR V30M mutant (unknown origin) expressed in Escherichia coli assessed as change in enthalpy at 60 uM by ITC assay
[3] = system: Transthyretin (Homo sapiens), P02766 [V50M]; assay: Binding affinity to N-terminal hexa-histidine tagged TTR V30M mutant (unknown origin) expressed in Escherichia coli assessed as change in entropy at 60 uM by ITC assay
Transthyretin [4] = target: T1, Transthyretin; assay: Binding affinity to N-terminal hexa-histidine tagged TTR V30M mutant (unknown origin) expressed in Escherichia coli assessed as dissociation constant at 60 uM by ITC assay
[5] = system: Transthyretin (Homo sapiens), P02766 [V50M]; assay: Binding affinity to N-terminal hexa-histidine tagged TTR V30M mutant (unknown origin) expressed in Escherichia coli assessed as gibbs free energy change at 60 uM by ITC assay
Transthyretin [6] = target: T1, Transthyretin; assay: Binding affinity to recombinant N-terminal hexa-histidine tagged TTR V30M mutant (unknown origin) expressed in Escherichia coli assessed as quenching of intrinsic tryptophan fluorescence by measuring apparent dissociation constant incubated for 60 mins by fluorescence based analysis; details: read-out: Kd(app)
[7] = system: Transthyretin (Homo sapiens), P02766 [V50M]; assay: as §1, with “fluorescence intensity at 1 uM” for “turbidity”, “4 days” for “1 week”, “thioflavin T” for “absorbance”, “fluorescence spectrophotometric analysis” for “assay”; details: time 4.0 day

SMILES	Ki (Transthyretin [1])	deltaH [2]	-TdeltaS [3]	Kd (Transthyretin [4])	deltaG [5]	Kd (Transthyretin [6])	inhibition [7]
COc1cc(/C=C/c2cc(O)cc(O)c2)ccc1O	3200 nM	-13 kcal/mol	4.7 kcal/mol	1200 nM	-8.1 kcal/mol	730 nM	Active
COc1cc(O)cc(/C=C/c2ccc(O)cc2)c1	3400 nM	-14 kcal/mol	6.2 kcal/mol	2400 nM	-7.7 kcal/mol	1200 nM	Active
Oc1cc(O)cc(/C=C/c2c(O)cccc2O)c1	54000 nM	-8.5 kcal/mol	1.7 kcal/mol	11000 nM	-6.8 kcal/mol	14000 nM	inactive
O=C(O)c1cc(-c2ccc(F)cc2F)ccc1O		-13 kcal/mol	5.2 kcal/mol				Active
O=C(O)c1ccc2nc(-c3cc(Cl)cc(Cl)c3)oc2c1		-5 kcal/mol	-4 kcal/mol				Active
COc1cc(/C=C/c2ccc(OC)c(OC)c2)cc(OC)c1 [(E)-3,4,3',5'-TETRAMETHOXYSTILBENE]	49000 nM					6900 nM	inactive
Oc1cc(O)cc(/C=C/c2ccc(O)cc2O)c1 [OXYRESVERATROL]	4500 nM	-16 kcal/mol	7.5 kcal/mol	1400 nM	-8.1 kcal/mol	2400 nM	Active
Oc1cc(O)cc(/C=C/c2ccc(O)c(O)c2)c1 [PICEATANNOL]	5400 nM	-14 kcal/mol	6.4 kcal/mol	1500 nM	-8 kcal/mol	2100 nM	Active
COc1cc(/C=C/c2ccc(O)cc2)cc(OC)c1 [PTEROSTILBENE]	3500 nM	-14 kcal/mol	6.8 kcal/mol	4600 nM	-7.3 kcal/mol	1900 nM	Active
Oc1ccc(/C=C/c2cc(O)cc(O)c2)cc1 [RESVERATROL]	2700 nM	-15 kcal/mol	6.6 kcal/mol	1500 nM	-8 kcal/mol	1400 nM	Active
CC(=O)Oc1ccc(/C=C/c2cc(OC(C)=O)cc(OC(C)=O)c2)cc1 [TRIACETYLRESVERATROL]	2200 nM						Active
COc1ccc(/C=C/c2cc(OC)cc(OC)c2)cc1 [TRISMETHOXYRESVERATROL]						4100 nM	inactive
